Assay results from US10138227B2, “Heteroaryl substituted pyridines and methods of use” (AbbVie S.à.r.l., priority 2016, dated 2018).

Legend:
[1] = target: T1, CFTR ΔF508 mutant (Homo sapiens, UniProt P13569, DEL508-508); experiment: YFP-halide influx assay for the CFTR-ΔF508 mutation; assay type: cell-based; settings: CFBE41o- cells expressing CFTR ΔF508 and YFP reporter, forskolin 10.67 μM; for EC50: (1-F/F0) vs concentration
T1 construct: expressed in transfected cells; host or cells: CFBE41o- cells transduced with adenoviral vectors
Source text: The YFP halide influx assay measured the functionality of the cystic fibrosis Transmembrane Conductance regulator (CFTR) channels in the cystic fibrosis bronchial epithelium cell line CFBE41o-. The assay was used to evaluate the capacity of compounds to increase the open probability of existing CFTR channels in the membrane. It makes use of the observation that the yellow fluorescent protein (YFP) variant YFP H148Q, I152L, F47L has its fluorescence substantially quenched by halide ions like Cl^− and I^− (Galietta, L. J. V., Haggie, P. M., Verkman, A. S., 2001. Green fluorescent protein-based halide indicators with improved chloride and iodide affinities. FEBS Lett. 499, 220-224. doi:10.1016/S0014-5793(01)02561-3; Nagai, T., Ibata, K., Park, E. S., Kubota, M., Mikoshiba, K., Miyawaki, A., 2002. A variant of yellow fluorescent protein with fast and efficient maturation for cell-biological applications. Nat. Biotechnol. 20, 87-90. doi:10.1038/nbt0102-87).
For this purpose, CFBE410-cells were seeded in 384 well plates (3000 CFBE cells/well). One day after seeding, the CFBE cells were transduced with adenoviral vectors that direct the expression of the CFTR ΔF508 mutant and of the YFP reporter. Cells were incubated at 27° C., 5% CO2 for 24 hours so as to allow for the proper folding and migration to the membrane of the CFTR channel or treated with a CFTR modulator during 24 hours at 37° C.
(§1) The I-induced quenching of fluorescence was recorded on an immediately after injection of iodide for 2 minutes on an FDSS/μCell (Hamamatsu). The capacity of a compound to increase the channel opening was directly correlated with the decrease in fluorescence, and was expressed as (1-(fluorescence after 36 seconds (F)/fluorescence before injection (F0))) and an EC50 was derived from a (1-F/F0) vs compound concentration plot.

[2] = target: T2, CFTR G551D mutant (Homo sapiens, UniProt P13569, G551D); experiment: YFP-halide influx assay for the CFTR-G551D mutation; assay type: cell-based; settings: HEK293 cells expressing CFTR G551D and YFP reporter; forskolin 10.67 μM
T2 construct: expressed in transfected cells; host or cells: HEK293 cells, reverse-transfected with plasmid vectors
Source text: The YFP halide influx assay measured the functionality of the cystic fibrosis Transmembrane Conductance regulator (CFTR) channels. The assay was used to evaluate the capacity of compounds to increase the channel opening of existing mutant CFTR channels in the membrane. It makes use of the observation that the yellow fluorescent protein (YFP) variant YFP H148Q, I152L, F47L has its fluorescence substantially quenched by halide ions like Cl^− and I^− (Galietta, L. J. V., Haggie, P. M., Verkman, A. S., 2001. Green fluorescent protein-based halide indicators with improved chloride and iodide affinities. FEBS Lett. 499, 220-224. doi:10.1016/S0014-5793(01)02561-3).
For this purpose, HEK293-cells were seeded in 96 well plates. During seeding, the cells were reverse-transfected with plasmid vectors that direct the expression of the CFTR G551D mutant and of the YFP reporter. Cells were incubated at 37° C., 5% CO2 for 24 hours so as to allow for sufficient expression of the CFTR protein.
as §1, with “I^−-induced” for “I-induced”, “recorded” for “recorded on an”, “I^−” for “iodide”, “7 seconds.” for “2 minutes on an FDSS/μCell (Hamamatsu).”, “7” for “36”, “(1−F/F0)” for “(1-F/F0)”

T1 sequence (P13569 with tags, fused parts or gaps DEL508-508): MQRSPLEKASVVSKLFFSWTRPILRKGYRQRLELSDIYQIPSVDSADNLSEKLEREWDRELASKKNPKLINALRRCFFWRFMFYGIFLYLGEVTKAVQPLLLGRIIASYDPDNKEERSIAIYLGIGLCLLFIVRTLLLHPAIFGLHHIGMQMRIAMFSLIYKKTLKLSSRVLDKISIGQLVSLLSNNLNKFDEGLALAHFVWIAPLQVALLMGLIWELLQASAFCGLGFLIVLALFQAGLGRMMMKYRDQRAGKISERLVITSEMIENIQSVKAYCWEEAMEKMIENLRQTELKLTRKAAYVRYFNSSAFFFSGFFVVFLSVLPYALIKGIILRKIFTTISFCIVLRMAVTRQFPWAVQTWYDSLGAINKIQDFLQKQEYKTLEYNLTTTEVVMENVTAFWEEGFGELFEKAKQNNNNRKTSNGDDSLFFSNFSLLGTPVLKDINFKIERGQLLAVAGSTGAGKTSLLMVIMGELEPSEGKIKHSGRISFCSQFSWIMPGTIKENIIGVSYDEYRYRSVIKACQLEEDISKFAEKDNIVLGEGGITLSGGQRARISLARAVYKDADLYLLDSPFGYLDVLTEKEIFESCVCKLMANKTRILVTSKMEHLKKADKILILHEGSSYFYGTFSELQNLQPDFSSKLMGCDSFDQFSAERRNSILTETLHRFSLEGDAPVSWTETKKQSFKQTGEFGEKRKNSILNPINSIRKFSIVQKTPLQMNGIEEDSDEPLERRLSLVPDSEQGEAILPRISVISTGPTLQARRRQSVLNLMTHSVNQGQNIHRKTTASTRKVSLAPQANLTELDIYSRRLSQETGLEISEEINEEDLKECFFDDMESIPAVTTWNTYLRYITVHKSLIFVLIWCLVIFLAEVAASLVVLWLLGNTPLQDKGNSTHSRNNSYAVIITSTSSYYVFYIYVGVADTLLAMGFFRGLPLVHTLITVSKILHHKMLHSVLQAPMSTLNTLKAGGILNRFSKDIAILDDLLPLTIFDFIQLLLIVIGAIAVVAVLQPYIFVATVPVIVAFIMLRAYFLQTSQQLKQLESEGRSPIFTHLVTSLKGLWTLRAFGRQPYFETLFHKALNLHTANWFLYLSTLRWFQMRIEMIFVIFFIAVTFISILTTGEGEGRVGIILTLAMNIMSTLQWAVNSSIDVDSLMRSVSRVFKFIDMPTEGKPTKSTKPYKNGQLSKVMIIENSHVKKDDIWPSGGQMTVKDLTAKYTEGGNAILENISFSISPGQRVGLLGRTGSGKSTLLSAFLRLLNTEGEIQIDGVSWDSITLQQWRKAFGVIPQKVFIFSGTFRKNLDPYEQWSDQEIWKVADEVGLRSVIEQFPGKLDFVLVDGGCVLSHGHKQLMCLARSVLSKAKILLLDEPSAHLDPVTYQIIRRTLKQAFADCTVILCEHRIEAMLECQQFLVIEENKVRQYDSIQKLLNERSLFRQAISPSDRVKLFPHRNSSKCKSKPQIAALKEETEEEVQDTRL
T2 sequence (P13569 whole entry G551D): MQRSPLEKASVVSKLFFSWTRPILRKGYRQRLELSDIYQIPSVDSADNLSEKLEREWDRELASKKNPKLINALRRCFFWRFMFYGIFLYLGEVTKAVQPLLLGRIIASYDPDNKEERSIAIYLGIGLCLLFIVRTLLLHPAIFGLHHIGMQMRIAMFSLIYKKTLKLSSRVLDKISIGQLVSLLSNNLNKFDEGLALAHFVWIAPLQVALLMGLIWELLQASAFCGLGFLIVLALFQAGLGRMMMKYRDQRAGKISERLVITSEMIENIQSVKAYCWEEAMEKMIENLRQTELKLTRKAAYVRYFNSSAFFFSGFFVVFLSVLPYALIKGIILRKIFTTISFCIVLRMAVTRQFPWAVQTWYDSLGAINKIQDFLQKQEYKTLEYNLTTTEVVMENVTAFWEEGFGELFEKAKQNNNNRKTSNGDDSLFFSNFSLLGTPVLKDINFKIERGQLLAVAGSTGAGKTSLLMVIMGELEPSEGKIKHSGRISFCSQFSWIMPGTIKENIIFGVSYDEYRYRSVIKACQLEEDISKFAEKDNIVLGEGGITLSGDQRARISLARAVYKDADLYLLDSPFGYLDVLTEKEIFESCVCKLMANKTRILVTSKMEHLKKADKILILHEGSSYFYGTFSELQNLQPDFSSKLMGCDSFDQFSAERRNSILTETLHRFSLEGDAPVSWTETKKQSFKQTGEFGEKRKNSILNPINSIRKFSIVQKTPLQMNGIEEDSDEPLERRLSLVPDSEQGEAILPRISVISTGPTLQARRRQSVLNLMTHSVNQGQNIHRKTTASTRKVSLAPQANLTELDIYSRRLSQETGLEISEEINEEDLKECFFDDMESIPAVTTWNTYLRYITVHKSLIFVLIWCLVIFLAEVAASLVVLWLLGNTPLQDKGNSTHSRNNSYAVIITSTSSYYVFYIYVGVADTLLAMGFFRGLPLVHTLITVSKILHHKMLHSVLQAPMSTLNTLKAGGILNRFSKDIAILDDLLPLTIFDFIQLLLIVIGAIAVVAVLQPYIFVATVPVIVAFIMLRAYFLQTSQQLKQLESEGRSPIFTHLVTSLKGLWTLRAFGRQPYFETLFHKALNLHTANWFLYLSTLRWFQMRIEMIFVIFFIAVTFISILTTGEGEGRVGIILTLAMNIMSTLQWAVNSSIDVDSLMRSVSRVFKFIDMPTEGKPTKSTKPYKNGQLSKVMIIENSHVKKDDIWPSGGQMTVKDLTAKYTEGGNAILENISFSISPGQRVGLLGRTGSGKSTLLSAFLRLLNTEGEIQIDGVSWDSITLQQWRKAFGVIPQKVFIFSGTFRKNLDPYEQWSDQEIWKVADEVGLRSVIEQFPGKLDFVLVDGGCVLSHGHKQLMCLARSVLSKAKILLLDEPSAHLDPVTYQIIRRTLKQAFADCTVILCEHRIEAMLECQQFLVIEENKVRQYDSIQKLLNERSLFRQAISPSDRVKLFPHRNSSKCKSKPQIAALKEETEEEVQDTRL

Row | % Activation [1] [%] | EC50 [1] [nM] | % Activation [2] [%] | EC50 [2] [nM] | SMILES
1 | 58.29 | > 667 | 0.3 | > 10000 | Nc1cc(S(=O)(=O)c2ccc(OC(F)(F)F)cc2)cnc1-c1ncc(CO)s1 [Compound 5, (2-{3-amino-5-[4-(trifluoromethoxy)benzene-1-sulfonyl]pyridin-2-yl}-1,3-thiazol-5-yl)methanol]
2 | 109.25 | 1.13 | – | – | Nc1cc(S(=O)(=O)c2ccc(OC(F)(F)F)cc2)cnc1-c1nnc([C@@H](O)c2ccccc2)o1 [Compound 45, (S)-(5-{3-amino-5-[4-(trifluoromethoxy)benzene-1-sulfonyl]pyridin-2-yl}-1,3,4-oxadiazol-2-yl)(phenyl)methanol]
3 | 106.56 | 4.25 | – | – | Nc1cc(S(=O)(=O)c2ccccc2OC(F)(F)F)cnc1-c1nnc(CO)o1 [Compound 59, (5-{3-amino-5-[2-(trifluoromethoxy)benzene-1-sulfonyl]pyridin-2-yl}-1,3,4-oxadiazol-2-yl)methanol]
4 | 106.65 | 36.8 | – | – | Nc1cc(S(=O)(=O)c2ccc(OC(F)(F)F)cc2)cnc1-c1nnc(C[C@@H]2CCCO2)o1 [Compound 40, 2-(5-{[(2S)-oxolan-2-yl]methyl}-1,3,4-oxadiazol-2-yl)-5-[4-(trifluoromethoxy)benzene-1-sulfonyl]pyridin-3-amine]
5 | 6.28 | > 4990 | – | – | Nc1cc(S(=O)(=O)c2ccc(OC(F)(F)F)cc2)cnc1-c1nc(C2CCOCC2)no1 [Compound 48, 2-[3-(oxan-4-yl)-1,2,4-oxadiazol-5-yl]-5-[4-(trifluoromethoxy)benzene-1-sulfonyl]pyridin-3-amine]
6 | 3.42 | > 4990 | – | – | Nc1cc(S(=O)(=O)c2ccc(OC(F)(F)F)cc2)cnc1-c1nc(C2CC2)no1 [Compound 52, 2-(3-cyclopropyl-1,2,4-oxadiazol-5-yl)-5-[4-(trifluoromethoxy)benzene-1-sulfonyl]pyridin-3-amine]
7 | 119.85 | 28.7 | – | – | COCc1nnc(-c2ncc(S(=O)(=O)c3ccc(OC(F)(F)F)cc3)cc2N)o1 [Compound 37, 2-[5-(methoxymethyl)-1,3,4-oxadiazol-2-yl]-5-[4-(trifluoromethoxy)benzene-1-sulfonyl]pyridin-3-amine]
8 | 102.85 | 36.9 | – | – | Nc1cc(S(=O)(=O)c2ccc(OC(F)(F)F)cc2)cnc1-c1nnc(C[C@@H]2CCCO2)s1 [Compound 31, 2-(5-{[(2S)-oxolan-2-yl]methyl}-1,3,4-thiadiazol-2-yl)-5-[4-(trifluoromethoxy)benzene-1-sulfonyl]pyridin-3-amine]
9 | 23.23 | > 3320 | – | – | Nc1cc(S(=O)(=O)c2ccc(OC(F)(F)F)cc2)cnc1-c1nc(CC2CCCO2)no1 (stereo not drawn) [Compound 51, 2-{3-[(oxolan-2-yl)methyl]-1,2,4-oxadiazol-5-yl}-5-[4-(trifluoromethoxy)benzene-1-sulfonyl]pyridin-3-amine]
10 | 45.59 | > 1660 | – | – | Nc1cc(S(=O)(=O)c2ccc(OC(F)(F)F)cc2)cnc1-c1nc(CC2CC2)no1 [Compound 50, 2-[3-(cyclopropylmethyl)-1,2,4-oxadiazol-5-yl]-5-[4-(trifluoromethoxy)benzene-1-sulfonyl]pyridin-3-amine]
11 | 97.36 | 97.4 | – | – | Nc1cc(S(=O)(=O)c2ccccc2)cnc1-c1nnc(CO)o1 [Compound 61, {5-[3-amino-5-(benzenesulfonyl)pyridin-2-yl]-1,3,4-oxadiazol-2-yl}methanol]
12 | 109.95 | < 0.39 | – | – | Nc1cc(S(=O)(=O)c2ccc(OC(F)(F)F)cc2)c(Br)nc1-c1nnc(CO)o1 [Compound 63, (5-{3-amino-6-bromo-5-[4-(trifluoromethoxy)benzene-1-sulfonyl]pyridin-2-yl}-1,3,4-oxadiazol-2-yl)methanol]
13 | 117.3 | 11.4 | – | – | COCCOCc1nnc(-c2ncc(S(=O)(=O)c3ccc(OC(F)(F)F)cc3)cc2N)s1 [Compound 17, 2-{5-[(2-methoxyethoxy)methyl]-1,3,4-thiadiazol-2-yl}-5-[4-(trifluoromethoxy)benzene-1-sulfonyl]pyridin-3-amine]
14 | 105.25 | 1.63 | – | – | Nc1cc(S(=O)(=O)c2ccc(OC(F)(F)F)cc2)cnc1-c1nnc([C@@H](O)Cc2ccccc2)o1 [Compound 44, (1S)-1-(5-{3-amino-5-[4-(trifluoromethoxy)benzene-1-sulfonyl]pyridin-2-yl}-1,3,4-oxadiazol-2-yl)-2-phenyl ethan-1-ol]
15 | 106.2 | 9.09 | – | – | Nc1cc(S(=O)(=O)c2ccc(OC(F)(F)F)cc2)cnc1-c1nnc(CNC(=S)C2CC2)s1 [Compound 18, N-[(5-{3-amino-5-[4-(trifluoromethoxy)benzene-1-sulfonyl]pyridin-2-yl}-1,3,4-thiadiazol-2-yl)methyl]cyclopropanecarbothioamide]
16 | 102.19 | 21.3 | – | – | CO[C@H](C)c1nnc(-c2ncc(S(=O)(=O)c3ccc(OC(F)(F)F)cc3)cc2N)o1 [Compound 34, 2-{5-[(1R)-1-methoxyethyl]-1,3,4-oxadiazol-2-yl}-5-[4-(trifluoromethoxy)benzene-1-sulfonyl]pyridin-3-amine]
17 | 122.9 | 15.3 | – | – | CN(Cc1ccccc1)S(=O)(=O)c1cnc(-c2nnc(CO)o2)c(N)c1 [Compound 60, 5-amino-N-benzyl-6-[5-(hydroxymethyl)-1,3,4-oxadiazol-2-yl]-N-methylpyridine-3-sulfonamide]
18 | 50.3 | – | – | – | Nc1cc(S(=O)(=O)c2ccc(OC(F)(F)F)cc2)cnc1-c1nnc(COC(F)(F)F)s1 [Compound 28, 5-[4-(trifluoromethoxy)benzene-1-sulfonyl]-2-{5-[(trifluoromethoxy)methyl]-1,3,4-thiadiazol-2-yl}pyridin-3-amine]
19 | 97.54 | 350 | – | – | CO[C@@H](c1ccccc1)c1nnc(-c2ncc(S(=O)(=O)c3ccc(OC(F)(F)F)cc3)cc2N)s1 [Compound 19, 2-{5-[(S)-methoxy(phenyl)methyl]-1,3,4-thiadiazol-2-yl}-5-[4-(trifluoromethoxy)benzene-1-sulfonyl]pyridin-3-amine]
20 | 110.75 | 78.1 | – | – | Nc1cc(S(=O)(=O)c2ccc(OC(F)(F)F)cc2)cnc1-c1nnc(COC2CCOC2)o1 (stereo not drawn) [Compound 16, 2-(5-{[(oxolan-3-yl)oxy]methyl}-1,3,4-oxadiazol-2-yl)-5-[4-(trifluoromethoxy)benzene-1-sulfonyl]pyridin-3-amine]
21 | 106.5 | 14.9 | – | – | Nc1cc(S(=O)(=O)c2ccc(OC(F)(F)F)cc2)cnc1-c1nnc(C2CCCCC2)o1 [Compound 10, 2-(5-cyclohexyl-1,3,4-oxadiazol-2-yl)-5-[4-(trifluoromethoxy)benzene-1-sulfonyl]pyridin-3-amine]
22 | 93.64 | 2.41 | – | – | Nc1c(-c2nnc(CO)o2)ncc(S(=O)(=O)c2ccc(OC(F)(F)F)cc2)c1Cl [Compound 57, (5-{3-amino-4-chloro-5-[4-(trifluoromethoxy)benzene-1-sulfonyl]pyridin-2-yl}-1,3,4-oxadiazol-2-yl)methanol]
